Measurements taken from BindingDB's records for doi:10.1021/jm00108a040 (Eli Lilly, 1991).

How the values were obtained:
[1] = molecular target: Gastrin/cholecystokinin type B receptor (Cavia porcellus); assay: Inhibition of [125I]-labeled CCK-8 sulfate binding to Cholecystokinin type B receptor in guinea pig brain membranes
[2] = molecular target: Gastrin/cholecystokinin type B receptor (Cavia porcellus); assay: as above; remark: listed apart in the source

## CCc1cccc(-n2c(CCc3c[nH]c4ccc(Br)cc34)nc3ccccc3c2=O)c1
[1]
  IC50: 330 nM
[2]
  IC50: 330 nM
